Values after ≈ are worked out from the molar mass of the structure shown. Where two headings read alike, the source gives them in different places.
What was measured:
[1] = tested on: Aspergillus fumigatus isolates; assay: Broth microdilution assay of planktonic fungal growth (modified EUCAST); format: cell-based; details: isolate NCPF7100, broth microdilution, read-out: MIC75
[2] = tested on: Aspergillus fumigatus (NCPF2010); assay: Resazurin-microtitre assay of planktonic fungal growth; format: cell-based
Procedure: This assay was conducted using a modified, published method (Monteiro et al., 2012). Spores of Aspergillus fumigatus (NCPF2010, Public Health England, Wiltshire) were cultured in Sabouraud dextrose agar for 3 days. A stock spore suspension was prepared from a Sabouraud dextrose agar culture by washing with PBS-tween (10 mL; PBS containing 0.05% Tween-20, 100 U/mL Penicillin and 100 U/mL Streptomycin). The spore count was assessed using a Neubauer haemocytometer and, using PBS, adjusted to 10^6 spores/mL. A working suspension of spores (10^4 spores/mL) was prepared in filter sterilised MOPS RPMI-1640 (50 mL; RPMI-1640 containing 2 mM L-glutamine, 2% glucose and 0.165 M MOPS, buffered to pH 7 with NaOH). Resazurin sodium salt (100 μL of 1% solution; Sigma-Aldrich, Dorset, UK) was added to the spore suspension and mixed well. The spore suspension-resazurin mixture (100 μL/well) was added to 384-well plates (Catalogue number 353962, BD Falcon, Oxford, UK). Simultaneously, test compounds (0.5 μL DMSO solution) were added to 100 μL of the spore-resazurin mixture in quadruplicate to provide a final DMSO solution of 0.5% using an Integra VIAFLO 96 (Intergra, Zizers, Switzerland). For non-spore control wells, MOPS-RPMI-resazurin solution (100 μL) was added instead of the spore-resazurin mixture. The plate was covered with a Breathe Easier membrane (Catalogue No Z763624, Sigma-Aldrich, Dorset, UK), and incubated (35° C., 5% CO2) until fluorescence in the inoculated wells was double that of the control wells (around 24 hr). The fluorescence of each well (545 nm (excitation)/590 nm (emission), gain 800, focal height 5.5 mm) was determined using a multi-scanner (Clariostar: BMG, Buckinghamshire, UK). The percentage inhibition for each well was calculated and the MIC50, MIC75 and MIC90 values were calculated from the concentration-response curve generated for each test compound.

BEAS2B cells = assay: Cell viability: resazurin assay; format: cell-based, human; details: n = 1-5
Procedure: (§1) BEAS2B cells were seeded in 384-well plates (100 μL; 3000/well/; BD Falcon, Catalogue No 353962) in RPMI-LHC8 (RPMI-1640 and LHC8 media combined in equal proportions) one day before experimentation. For cell-free control wells, RPMI-LHC8 (100 μL) was added. Test compounds (0.5 μL of a DMSO solution) were added to give a final DMSO concentration of 0.5% using an Integra VIAFLO 96 (Integra, Zizers, Switzerland). BEAS2B cells were incubated with each test compound for 1 day (37° C./5% CO2 in RPMI-LHC8). After addition of resazurin stock solution (5 μL, 0.04%) the plates were incubated for a further 4 hr (37° C./5% CO2). The fluorescence of each well at 545 nm (excitation) and 590 nm (emission) was determined using a multi-scanner (Clariostar: BMG Labtech). The percentage loss of cell viability was calculated for each well relative to vehicle (0.5% DMSO) treatment. Where appropriate, a CC50 value was calculated from the concentration-response curve generated from the concentration-response curve for each test compound.

[3] = tested on: Aspergillus fumigatus isolates; assay: Broth microdilution assay of planktonic fungal growth (modified EUCAST); format: cell-based; details: read-out: MIC75
Procedure: This assay was conducted using a modified method published by EUCAST (Rodriguez-Tudela et al., 2008). Spores of Aspergillus fumigatus (NCPF2010, NCPF7010 (Methionine 220 mutation), NCPF7099 (Glycine G54 mutation) from Public Health England, Wiltshire; TR34/L98H mutants from St Louis Hospital, Paris, France) were cultured in Sabouraud dextrose agar for 3 days. A stock spore suspension was prepared from a Sabouraud dextrose agar culture by washing with PBS-tween (10 mL; PBS containing 0.05% Tween-20, 100 U/mL Penicillin and 100 U/mL Streptomycin). The spore count was assessed using a Neubauer haemocytometer and then adjusted to 10^6 spores/mL with PBS. A working suspension of spores (2×10^5 spores/mL) was prepared in filter sterilised, BSA MOPS RPMI-1640 (50 mL; RPMI-1640 containing 2 mM L-glutamine, 0.5% BSA, 2% glucose, 0.165 M MOPS, buffered to pH 7 with NaOH). For the assay, BSA MOPS RPMI-1640 (50 μL/well) was added throughout the 384-well plate (Catalogue number 353962, BD Falcon, Oxford, UK) first. Test compounds (0.5 μL DMSO solution) were then added in quadruplicate using an Integra VIAFLO 96 (Integra, Zizers, Switzerland), and mixed well using a plate mixer. Subsequently 50 μL of the working spore suspension prepared above was added to all wells except non-spore control wells. For non-spore control wells, BSA MOPS-RPMI solution (50 μL/well) was added instead. The plate was covered with a plastic lid, and incubated (35° C. with ambient air) for 48 hr. The OD of each well at 530 nm was determined using a multi-scanner (Clariostar: BMG, Buckinghamshire, UK). The percentage inhibition for each well was calculated and the MIC50, MIC75 and MIC90 values were calculated from the concentration-response curve generated for each test compound.

Aspergillus fumigatus = Aspergillus fumigatus infection of BEAS2B bronchial epithelial cells (GM in supernatant); format: cell-based
Procedure: BEAS2B cells were seeded in 96-well plates (100 μL; 30,000 cells/well; Catalogue No 3596, Sigma Aldrich, Dorset, UK) in 10% FBS RPMI-1640 and were then incubated (37° C., 5% CO2) for one day before experimentation. Test compounds (0.5 μL DMSO solution) or vehicle (DMSO) were added to each well to give a final DMSO concentration of 0.5%. BEAS2B cells were incubated with test compounds for 1 hr (35° C., 5% CO2) before infection with Aspergillus fumigatus (20 μL; Public Health England) conidia suspension (0.5×10^5/ml in 10% FBS RPMI-1640). The plate was incubated for 24 hr (35° C., 5% CO2). Supernatant (50 μL) was collected and transferred to a PCR plate (Catalogue No L1402-9700, Starlab, Milton Keynes, UK), which was frozen (−20° C.) until use. After thawing, supernatant (5 μL) was diluted 1:20 by adding R7-PBS solution (95 μL; 1:4 R7 to PBS; Bio-Rad Laboratories, Redmond, Wash., USA). GM levels in these samples (50 μL) were measured using Platelia GM-EIA kits (Bio-Rad Laboratories, Redmond, Wash., USA). The percentage inhibition for each well was calculated and the IC50 value was calculated from the concentration-response curve generated for each test compound.

[4] = Cell viability: resazurin assay; format: cell-based, human; details: human, BEAS2B cells; n = 1-5
Procedure: as §1

Row | SMILES | MIC [1] | Planktonic fungal growth MIC50 [2] | Planktonic fungal growth MIC75 [2] | CC50 (BEAS2B cells) | MIC ([3]; isolate L98H, broth microdilution) | MIC ([3]; isolate NCPF2010, broth microdilution) | MIC ([3]; isolate NCPF7099, broth microdilution) | MIC ([1]; Aspergillus fumigatus) | MIC50 (Aspergillus fumigatus) | CC50 at 1 day [4] | MIC ([3]; Aspergillus fumigatus) | MIC ([3]; Aspergillus fumigatus, isolate NCPF2010, broth microdilution) | MIC ([3]; Aspergillus fumigatus, isolate NCPF7099, broth microdilution)
1 | C[C@@H]1[C@H](O)[C@@H](C)/C=C/C=C/C=C/C=C/C=C/C=C/C=C/[C@H](O[C@@H]2O[C@H](C)[C@@H](O)[C@H](N)[C@@H]2O)C[C@@H]2O[C@](O)(C[C@@H](O)C[C@@H](O)[C@H](O)CC[C@@H](O)C[C@@H](O)CC(=O)O[C@H]1C)C[C@H](O)[C@H]2C(=O)O [Amphotericin B] | >1.08 µM | 0.0285 µM | 0.0644 µM | 977 nM | 0.209 µM (≈ 0.193 µg/mL) | 0.382 µM (≈ 0.353 µg/mL) | 0.365 µM (≈ 0.337 µg/mL) | – | – | – | – | – | –
2 | [2H]c1c([2H])c(NC(=O)c2ccc(N3CCN(c4ccc(OC[C@@H]5CO[C@@](Cn6cncn6)(c6ccc(F)cc6F)C5)c(C)c4)CC3)cc2)c([2H])c([2H])c1F [Compound (I)•4[^2H], 4-(4-(4-(((3R,5R)-5-((1H-1,2,4-triazol-1-yl)methyl)-5-(2,4-difluorophenyl)tetrahydrofuran-3-yl)methoxy)-3-methylphenyl)piperazin-1-yl)-N-(4-fluorophenyl-2,3,5,6-d4)benzamide] | – | – | – | – | – | – | – | 0.0286 µM (≈ 0.0196 µg/mL) | 0.00315 µM (≈ 0.00216 µg/mL) | > 14600 nM | 0.07 µM (≈ 0.0481 µg/mL) | 0.0147 µM (≈ 0.0101 µg/mL) | 0.0137 µM (≈ 0.00941 µg/mL)

Reference: patent US20210238169A1, “PROCESS FOR PREPARING A COMPOUND OF FORMULA (XIII)” (PULMOCIDE LIMITED, priority 2014, published 2021)
